Test results as given in patent US10160724B2, “Tetrahydropyridine derivatives and their use as antibacterial agents” (Dong-A St Co., Ltd., priority 2016, dated 2018).
Converted amounts (≈) assume the structure as drawn.

Legend:
Experiment in all cases: In vitro antibiotic activity, agar dilution method (Mueller-Hinton agar, NCCLS)
Assay type in all cases: cell-based
P. aeruginosa PAO1 = settings: Pseudomonas aeruginosa, PAO1; agar dilution, Mueller-Hinton agar; read-out: MIC for P. aeruginosa PAO1
Procedure, shortened: (§1)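 MICs determined by agar dilution on Mueller-Hinton agar following NCCLS M7 guidance, against E. coli ATCC 25922, K. pneumoniae ATCC 29665 and P. aeruginosa PAO1.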

E. coli ATCC 25922 = settings: Escherichia coli, ATCC25922; agar dilution, Mueller-Hinton agar; read-out: MIC for E. coli ATCC 25922
Procedure, shortened: as §1

K. pneumoniae ATCC 29665 = settings: Klebsiella pneumoniae, ATCC29665; agar dilution, Mueller-Hinton agar; read-out: MIC for K. pneumoniae ATCC 29665
Procedure, shortened: as §1

`Cc1csc(-c2ccc(C3=CCN(CCC(C)(C(=O)NO)S(C)(=O)=O)CC3)cc2)c1.Cl` (stereo not drawn) [Example 72, N-hydroxy-2-methyl-2-(methylsulfonyl)-4-(4-(4-(4-methylthiophen-2-yl)phenyl)-3,6-dihydropyridin-1(2H)-yl)butanamide hydrochloride] was tested. Which MIC (P. aeruginosa PAO1) did it give?
The MIC was > 16 µg/mL.

And the MIC (E. coli ATCC 25922)?
The MIC was < 1 µg/mL.

What about the MIC (K. pneumoniae ATCC 29665) of the same compound?
Its MIC is < 1 µg/mL.

Which MIC (P. aeruginosa PAO1) does the source give for `CCS(=O)(=O)c1ccc(-c2ccc(C3=CCN(CCC(C)(C(=O)NO)S(C)(=O)=O)CC3)cc2)cc1.Cl` (stereo not drawn) [Example 73, 4-(4-(4′-(ethylsulfonyl)-[1,1′-biphenyl]-4-yl)-3,6-dihydropyridin-1(2H)-yl)-N-hydroxy-2-methyl-2-(methylsulfonyl)butanamide hydrochloride] here?
Its MIC is 1 to 8 µg/mL.

What about the MIC (E. coli ATCC 25922) of the same compound?
Its MIC is < 1 µg/mL.

And the MIC (K. pneumoniae ATCC 29665)?
The MIC was 1 to 8 µg/mL.

With `CC(CCN1CC=C(c2ccc(-c3ccc(CN4CCOCC4)cc3)cc2)CC1)(C(=O)NO)S(C)(=O)=O` (stereo not drawn) [Example 74, N-hydroxy-2-methyl-2-(methylsulfonyl)-4-(4-(4′-(morpholinomethyl)-[1,1′-biphenyl]-4-yl)-3,6-dihydropyridin-1(2H)-yl)butanamide] as the compound, how does the MIC (P. aeruginosa PAO1) read?
Its MIC is 1 to 8 µg/mL (≈ 1.9 to 15.2 µM).

And the MIC (E. coli ATCC 25922)?
Its MIC is < 1 µg/mL.

What about the MIC (K. pneumoniae ATCC 29665) of the same compound?
Its MIC is < 1 µg/mL.

Which MIC (P. aeruginosa PAO1) does the source give for `COCC#Cc1ccc(C2=CCN(CCC(C)(C(=O)NO)S(C)(=O)=O)CC2)cn1` (stereo not drawn) [Example 75, N-hydroxy-4-(6-(3-methoxyprop-1-yn-1-yl)-3′,6′-dihydro-[3,4′-bipyridin]-1′(2′H)-yl)-2-methyl-2-(methylsulfonyl)butanamide] here?
Its MIC is > 16 µg/mL.

And the MIC (E. coli ATCC 25922)?
The MIC was > 16 µg/mL.

And the MIC (K. pneumoniae ATCC 29665)?
The MIC was > 16 µg/mL.

Which MIC (P. aeruginosa PAO1) does the source give for `CC(CN1CC=C(c2ccc(-c3ccccc3)cc2)CC1)(C(=O)NO)S(C)(=O)=O` (stereo not drawn) [Example 76, 3-(4-([1,1′-biphenyl]-4-yl)-3,6-dihydropyridin-1(2H)-yl)-N-hydroxy-2-methyl-2-(methylsulfonyl)propanamide] here?
The MIC was > 16 µg/mL.

And the MIC (E. coli ATCC 25922)?
Its MIC is > 16 µg/mL.

What about the MIC (K. pneumoniae ATCC 29665) of the same compound?
Its MIC is > 16 µg/mL.
